# Test results taken from PMC7915026, “Sulfaguanidine Hybrid with Some New Pyridine-2-One Derivatives: Design, Synthesis, and Antimicrobial Activity against Multidrug-Resistant Bacteria as Dual DNA Gyrase and DHFR Inhibitors” (Antibiotics, 2021).
# Like-named read-outs stand apart in the source and are kept apart here.
# Experiments:
# [1] = test system: B. subtilis ATCC 6633; assay: Inhibition zone, paper disk/agar diffusion; assay type: cell-based; also: test concentration or dose not given here
# Method in brief: (§1)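 Readout: clear-zone diameter, mm. Agar plate diffusion format; norfloxacin used as comparator control.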
# [2] = test system: C. albicans (ATCC 10231); assay: Inhibition zone, paper disk/agar diffusion; assay type: cell-based; settings: Na = no activity
# Method in brief: as §1
# [3] = test system: E. coli ATCC 25922; assay: Inhibition zone, paper disk/agar diffusion; assay type: cell-based
# Method in brief: as §1
# [4] = test system: E. faecalis ATCC 29212; assay: Inhibition zone, paper disk/agar diffusion; assay type: cell-based; also: test concentration or dose not given here
# Method in brief: as §1
# [5] = test system: F. oxysporum (RCMB 008002); assay: Inhibition zone, paper disk/agar diffusion; assay type: cell-based; settings: Na = no activity; also: test concentration or dose not given here
# Method in brief: as §1
# [6] = test system: P. aeruginosa ATCC 27853; assay: Inhibition zone, paper disk/agar diffusion; assay type: cell-based
# Method in brief: as §1
# [7] = test system: S. aureus ATCC 29213; assay: Inhibition zone, paper disk/agar diffusion; assay type: cell-based; also: test concentration or dose not given here
# Method in brief: as §1
# [8] = test system: S. typhi ATCC 6539; assay: Inhibition zone, paper disk/agar diffusion; assay type: cell-based
# Method in brief: as §1
# [9] = test system: B. subtilis ATCC 6633; assay: MIC and MBC determination; assay type: cell-based
# [10] = test system: S. aureus ATCC 29213; assay: MIC and MBC determination; assay type: cell-based
# [11] = test system: E. faecalis ATCC 29212; assay: MIC and MBC determination; assay type: cell-based
# [12] = test system: E. coli ATCC 25922; assay: MIC and MBC determination; assay type: cell-based
# [13] = test system: P. aeruginosa ATCC 27853; assay: MIC and MBC determination; assay type: cell-based; settings: Pseudomonas aeruginosa, ATCC27853
# [14] = test system: Salmonella typhi (S. typhi ATCC 6539); assay: microbe, parasite or virus in culture; assay type: cell-based; settings: Salmonella enterica
# [15] = test system: C. albicans (ATCC 10231); assay: MIC and MFC determination; assay type: cell-based
# [16] = test system: F. oxysporum (RCMB 008002); assay: MIC and MFC determination; assay type: cell-based
# [17] = test system: E. coli ATCC BAA-196; assay: Inhibition zone against multidrug-resistant bacteria; also: test concentration or dose not given here; assay type: cell-based; settings: MDRB E. coli ATCC BAA-196
# Text: (§2) Norfloxacin was used as a positive control for the multidrug resistance study.
# (§3) The antimicrobial activity performed at the bacteriology laboratory, Botany and Microbiology Department, Faculty of Science, Al-Azhar University, Cairo, Egypt. The inhibition zone (IZ) of the tested derivatives expressed as the diameter (mm) according to the agar plate diffusion method.
# [18] = test system: P. aeruginosa ATCC BAA-2111; assay: as above; assay type: cell-based; settings: MDRB P. aeruginosa ATCC BAA-2111
# Text: as §2, §3
# [19] = test system: S. aureus ATCC 33591; assay: as above; assay type: cell-based; settings: MDRB S. aureus ATCC 33591
# Text: as §2, §3
# [20] = test system: S. aureus ATCC 43300; assay: as above; assay type: cell-based; settings: MDRB S. aureus ATCC 43300
# Text: as §2, §3
# [21] = test system: E. coli ATCC BAA-196; assay: MIC and MBC against multidrug-resistant strains; assay type: cell-based; settings: Escherichia coli, ATCCBAA196, E. coli ATCC BAA-196
# Text: as §2
# (§4) The experiment was repeating for three-times.
# [22] = test system: P. aeruginosa ATCC BAA-2111; assay: MIC and MBC against multidrug-resistant strains; assay type: cell-based; settings: P. aeruginosa ATCC BAA-2111
# Text: as §2, §4
# [23] = test system: S. aureus ATCC 33591; assay: MIC and MBC against multidrug-resistant strains; assay type: cell-based; settings: Staphylococcus aureus, ATCC33591, S. aureus ATCC 33591
# Text: as §2, §4
# [24] = test system: S. aureus ATCC 43300; assay: MIC and MBC against multidrug-resistant strains; assay type: cell-based; settings: Staphylococcus aureus, ATCC43300, S. aureus ATCC 43300
# Text: as §2, §4
# [25] = target: S. aureus DNA gyrase (Staphylococcus aureus, UniProt P0A0K8+P20831); assay: In vitro DNA gyrase supercoiling enzymatic assay; assay type: biochemical
# S. aureus DNA gyrase, sequence (P20831 whole entry): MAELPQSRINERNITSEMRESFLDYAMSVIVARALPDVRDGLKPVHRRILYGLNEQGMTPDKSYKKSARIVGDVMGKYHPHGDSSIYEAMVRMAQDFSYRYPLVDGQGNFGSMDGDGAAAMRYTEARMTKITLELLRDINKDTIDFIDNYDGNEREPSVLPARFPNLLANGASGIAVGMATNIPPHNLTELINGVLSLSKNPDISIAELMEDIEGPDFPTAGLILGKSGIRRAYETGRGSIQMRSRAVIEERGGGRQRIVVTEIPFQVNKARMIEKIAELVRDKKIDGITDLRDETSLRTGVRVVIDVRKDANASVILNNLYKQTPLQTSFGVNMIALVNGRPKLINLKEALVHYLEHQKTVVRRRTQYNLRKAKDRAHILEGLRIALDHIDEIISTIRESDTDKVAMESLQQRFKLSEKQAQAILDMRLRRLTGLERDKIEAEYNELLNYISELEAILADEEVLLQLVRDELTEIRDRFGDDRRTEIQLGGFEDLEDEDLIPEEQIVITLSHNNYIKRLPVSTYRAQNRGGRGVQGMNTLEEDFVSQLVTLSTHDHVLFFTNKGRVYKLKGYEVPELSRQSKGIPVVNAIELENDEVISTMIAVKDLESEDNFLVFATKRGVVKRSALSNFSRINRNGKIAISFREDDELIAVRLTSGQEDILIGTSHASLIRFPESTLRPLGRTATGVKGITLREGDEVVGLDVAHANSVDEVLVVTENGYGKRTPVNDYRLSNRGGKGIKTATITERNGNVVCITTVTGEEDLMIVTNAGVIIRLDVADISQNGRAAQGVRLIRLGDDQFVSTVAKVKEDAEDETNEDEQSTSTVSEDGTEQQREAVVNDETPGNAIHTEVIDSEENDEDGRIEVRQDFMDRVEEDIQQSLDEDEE
# S. aureus DNA gyrase, sequence (P0A0K8 whole entry): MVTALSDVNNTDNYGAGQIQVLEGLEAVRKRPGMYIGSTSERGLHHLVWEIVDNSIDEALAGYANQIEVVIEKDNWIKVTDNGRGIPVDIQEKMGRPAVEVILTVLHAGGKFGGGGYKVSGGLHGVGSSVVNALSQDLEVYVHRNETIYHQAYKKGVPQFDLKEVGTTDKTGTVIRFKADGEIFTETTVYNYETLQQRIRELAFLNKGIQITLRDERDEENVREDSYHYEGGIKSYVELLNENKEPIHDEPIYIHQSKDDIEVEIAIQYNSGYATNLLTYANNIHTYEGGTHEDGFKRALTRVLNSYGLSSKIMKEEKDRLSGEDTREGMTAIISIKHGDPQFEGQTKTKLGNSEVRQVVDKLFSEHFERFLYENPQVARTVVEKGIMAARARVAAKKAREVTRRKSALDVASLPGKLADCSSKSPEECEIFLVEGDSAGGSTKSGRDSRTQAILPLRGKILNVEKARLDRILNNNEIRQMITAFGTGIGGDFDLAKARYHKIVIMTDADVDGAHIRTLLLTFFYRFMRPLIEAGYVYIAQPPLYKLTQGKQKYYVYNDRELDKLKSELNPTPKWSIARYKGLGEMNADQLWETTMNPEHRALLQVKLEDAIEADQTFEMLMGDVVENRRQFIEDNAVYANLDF
# [26] = target: E. coli DHFR (dihydrofolate reductase) (Escherichia coli, UniProt P0ABQ4); assay: In vitro DHFR enzymatic assay; assay type: biochemical
# E. coli DHFR (dihydrofolate reductase), sequence (P0ABQ4 whole entry): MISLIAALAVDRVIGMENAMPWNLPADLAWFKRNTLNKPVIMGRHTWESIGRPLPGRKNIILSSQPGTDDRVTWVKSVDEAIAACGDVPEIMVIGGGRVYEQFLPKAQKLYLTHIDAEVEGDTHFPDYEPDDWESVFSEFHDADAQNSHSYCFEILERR
# [27] = test system: MDRB strains; assay: MIC and MBC, ranges over the MDRB panel; assay type: cell-based; settings: four MDRB strains
# Text: as §2, §4
# [28] = test system: Gram-positive and Gram-negative bacteria; assay type: cell-based
# [29] = Staphylococcus aureus, ATCC29213
# [30] = Enterococcus faecalis, ATCC29212
# [31] = Gram-negative: E. coli, P. aeruginosa, S. typhi
# For Mean Diameter of Inhibition Zone in this document: test concentration or dose not given here.
smiles,measurement,setting,value
"N#Cc1c(-c2ccc(Cl)cc2)c(C#N)c(=O)n(-c2ccc(S(=O)(=O)NC(=N)N)cc2)c1N [Compound 3a, 4-(6-Amino-4-(4-chlorophenyl)-3,5-dicyano-2-oxopyridin-1(2H)-yl)-N-carbamimidoylbenzenesulfonamide]",Mean Diameter of the Inhibition Zone,"[1]; B. subtilis, Na = no activity",31 ± 0.40 mm
same,Mean Diameter of the Inhibition Zone,[2],22 ± 0.35 mm
same,Mean Diameter of the Inhibition Zone,"[3]; E. coli, Na = no activity",24 ± 0.20 mm
same,Mean Diameter of the Inhibition Zone,"[4]; E. faecalis, Na = no activity",21 ± 0.11 mm
same,Mean Diameter of the Inhibition Zone,[5],21 ± 0.30 mm
same,Mean Diameter of the Inhibition Zone,"[6]; P. aeruginosa, Na = no activity",20 ± 0.15 mm
same,Mean Diameter of the Inhibition Zone,"[7]; S. aureus, Na = no activity",25 ± 0.31 mm
same,Mean Diameter of the Inhibition Zone,"[8]; S. typhi, Na = no activity",18 ± 0.16 mm
same,MBC,[9]; B. subtilis,19.6 ± 0.65 µM
same,MIC,[9]; B. subtilis,9.61 ± 1.65 µM
same,MBC,"[9]; Bacillus subtilis, ATCC6633, B. subtilis, read-out: MBC",19.6 µM
same,MIC,"[9]; Bacillus subtilis, ATCC6633, B. subtilis, read-out: MIC",9.61 µM
same,MBC,[10]; S. aureus,33.38 ± 0.65 µM
same,MIC,[10]; S. aureus,16.69 ± 0.87 µM
same,MBC,"[10]; Staphylococcus aureus, ATCC29213, S. aureus, read-out: MBC",33.4 µM
same,MIC,"[10]; Staphylococcus aureus, ATCC29213, S. aureus, read-out: MIC",16.7 µM
same,MBC,[11]; E. faecalis,15.83 ± 0.47 µM
same,MIC,[11]; E. faecalis,8.33 ± 0.36 µM
same,MBC,"[11]; Enterococcus faecalis, ATCC29212, E. faecalis, read-out: MBC",15.8 µM
same,MIC,"[11]; Enterococcus faecalis, ATCC29212, E. faecalis, read-out: MIC",8.33 µM
same,MBC,[12]; E. coli,30.02 ± 0.52 µM
same,MIC,[12]; E. coli,16.69 ± 0.84 µM
same,MBC,"[12]; Escherichia coli, ATCC25922, E. coli, read-out: MBC",30 µM
same,MIC,"[12]; Escherichia coli, ATCC25922, E. coli, read-out: MIC",16.7 µM
same,MBC,"[13]; P. aeruginosa, read-out: MBC",66.8 ± 0.87 µM
same,MIC,"[13]; P. aeruginosa, read-out: MIC",33.4 ± 0.35 µM
same,MBC,"[14]; Salmonella typhi, read-out: MBC",22.6 ± 0.32 µM
same,MIC,"[14]; Salmonella typhi, read-out: MIC",11.9 ± 0.62 µM
same,MFC,[15],26.69 ± 0.54 µM
same,MFC/MIC,[15],<2
same,MIC,[15],16.69 ± 0.75 µM
same,MFC,"[15]; Candida albicans, ATCC10231, read-out: MFC",26.7 µM
same,MIC,"[15]; Candida albicans, ATCC10231, read-out: MIC",16.7 µM
same,MFC,[16],56.74 ± 0.98 µM
same,MFC/MIC,[16],<2
same,MIC,[16],33.38 ± 0.74 µM
same,MFC,"[16]; Fusarium oxysporum, RCMB008002, read-out: MFC",56.7 µM
same,MIC,"[16]; Fusarium oxysporum, RCMB008002, read-out: MIC",33.4 µM
same,Mean Diameter of Inhibition Zone,[17],22 ± 0.23 mm
same,Mean Diameter of Inhibition Zone,[18],24 ± 0.22 mm
same,Mean Diameter of Inhibition Zone,[19],23 ± 0.47 mm
same,Mean Diameter of Inhibition Zone,[20],25 ± 0.4 mm
same,MBC,[21]; read-out: MBC,33.4 ± 0.84 µM
same,MIC,[21]; read-out: MIC,16.7 ± 0.41 µM
same,MBC,[22],14.23 ± 0.65 µM
same,MIC,[22],9.48 ± 0.54 µM
same,MBC,"[22]; Pseudomonas aeruginosa, ATCCBAA2111, read-out: MBC",14.2 µM
same,MIC,"[22]; Pseudomonas aeruginosa, ATCCBAA2111, read-out: MIC",9.48 µM
same,MBC,[23]; read-out: MBC,23.7 ± 0.28 µM
same,MIC,[23]; read-out: MIC,11.8 ± 0.24 µM
same,MBC,[24]; read-out: MBC,16.3 ± 0.36 µM
same,MIC,[24]; read-out: MIC,8.33 ± 0.29 µM
same,IC50,[25],22 ± 1.35 µM
same,fold potency relative to ciprofloxacin,[25]; S. aureus DNA gyrase IC50,~1.19 fold
same,IC50,[26],5.44 ± 0.95 µM
same,fold relative to trimethoprim,[26]; E. coli DHFR IC50,0.94 fold
same,MBC range,[27],14.23 to 33.38 µM
same,MIC range,[27],8.33 to 16.69 µM
"CN(C)[C@@H]1C(O)=C(C(N)=O)C(=O)[C@@]2(O)C(O)=C3C(=O)c4c(O)cccc4[C@@](C)(O)[C@H]3C[C@@H]12 [Tetracycline, tetracycline, reference compound]",Mean Diameter of the Inhibition Zone,[1],25 ± 0.22 mm
same,Mean Diameter of the Inhibition Zone,[3],23 ± 0.20 mm
same,Mean Diameter of the Inhibition Zone,[4],22 ± 0.25 mm
same,Mean Diameter of the Inhibition Zone,[6],20 ± 0.5 mm
same,Mean Diameter of the Inhibition Zone,[7],25 ± 0.11 mm
same,Mean Diameter of the Inhibition Zone,[8],21 ± 0.55 mm
same,MBC,[9],91.40 ± 2.89 µM
same,MIC,[9],70.31 ± 2.65 µM
same,MBC,"[9]; Bacillus subtilis, ATCC6633",91.4 µM
same,MIC,"[9]; Bacillus subtilis, ATCC6633",70.3 µM
same,MBC,[10]; [29],197 ± 3.54 µM
same,MIC,[10]; [29],141 ± 3.21 µM
same,MBC,[11],210.9 ± 1.78 µM
same,MIC,[11],140.6 ± 1.98 µM
same,MBC,[11]; [30],211 µM
same,MIC,[11]; [30],141 µM
same,MBC,[12],42.16 ± 0.92 µM
same,MIC,[12],35.14 ± 0.87 µM
same,MBC,"[12]; Escherichia coli, ATCC25922",42.2 µM
same,MIC,"[12]; Escherichia coli, ATCC25922",35.1 µM
same,MBC,[13],197 ± 2.36 µM
same,MIC,[13],141 ± 2.85 µM
same,MBC,[14],98.44 ± 0.87 µM
same,MIC,[14],70.3 ± 1.06 µM
same,MBC range,[28]; [31],42.16 to 196.89 µM
same,MIC range,[28]; [31],35.14 to 140.6 µM
same,MBC range,[28]; Gram-positive bacteria,91.40 to 210.9 µM
same,MIC range,[28]; Gram-positive bacteria,70.31 to 140.63 µM
